Source: publication PMC7842083 (Molecular pharmaceutics, 2020)
Where two headings read alike, the source gives them in different places.

What was measured:
[1] = 120 min, mean ± SD
[2] = for time at which plasma concentrations reached a maximum: oral administration
[3] = in vivo; conditions: female, po
[4] = in vitro; conditions: pH 6; for Papp at 120 min, 0.1 µCi/mL: APP/PS1, mouse; for Papp at 120 min: WT, mouse
[5] = oral administration; cited from earlier work

## Cn1c(=O)c2c(ncn2C)n(C)c1=O [Caffeine, caffeine]
[1]; jejunum from APP/PS1 mice, listed as 14C-Caffeine
  % of initial amount at 2 h (absorbed through jejunal tissue): 0.46 ± 0.14%
[1]; jejunum from APP/PS1 mice, listed as 14C-caffeine
  % of initial amount at 2 h (absorbed through jejunal tissue): 0.46%
[1]; jejunum from WT mice, listed as 14C-Caffeine
  % of initial amount at 2 h (absorbed through jejunal tissue): 0.40 ± 0.09%
[1]; jejunum from WT mice, listed as 14C-caffeine
  % of initial amount at 2 h (absorbed through jejunal tissue): 0.40%
[2]; oral dose of 5 mg/kg, present study
  time post-dose at which Cmax appeared: 0.5 h
[3]; APP/PS1 (B6C3-Tg (APPswe, PSEN1dE9)85Dbo/Mmjax), mouse
  Kp: 0.63 to 2.82
[3]; WT littermates of APP/PS1, mouse
  Kp: 1.07 to 2.78
[4]
  Papp at 120 min, 0.1 µCi/mL: 27.2 ± 13.8 ×10⁻⁶ cm/s
  Papp at 120 min: 31.4 ± 10.1 ×10⁻⁶ cm/s

## CN1C(=O)CN=C(c2ccccc2)c2cc(Cl)ccc21 [Diazepam, diazepam]
[1]; jejunum from APP/PS1 mice, listed as 3H-Diazepam
  % of initial amount at 2 h (absorbed through jejunal tissue): 0.52 ± 0.12%
[1]; jejunum from APP/PS1 mice, listed as 3H-diazepam
  % of initial amount at 2 h (absorbed through jejunal tissue): 0.52%
[1]; jejunum from WT mice, listed as 3H-Diazepam
  % of initial amount at 2 h (absorbed through jejunal tissue): 0.42 ± 0.12%
[1]; jejunum from WT mice, listed as 3H-diazepam
  % of initial amount at 2 h (absorbed through jejunal tissue): 0.42%

## C[C@H]1O[C@@H](O[C@H]2[C@@H](O)C[C@H](O[C@H]3[C@@H](O)C[C@H](O[C@H]4CC[C@@]5(C)[C@H](CC[C@@H]6[C@@H]5C[C@@H](O)[C@]5(C)[C@@H](C7=CC(=O)OC7)CC[C@]65O)C4)O[C@@H]3C)O[C@@H]2C)C[C@H](O)[C@@H]1O [Digoxin, digoxin]
[1]; jejunum from APP/PS1 mice, listed as 3H-Digoxin
  % of initial amount at 2 h (absorbed through jejunal tissue): 0.22 ± 0.11 %
[1]; jejunum from APP/PS1 mice, listed as 3H-digoxin
  % of initial amount at 2 h (absorbed through jejunal tissue): 0.22 ± 0.11%
[1]; jejunum from WT mice, listed as 3H-Digoxin
  % of initial amount at 2 h (absorbed through jejunal tissue): 0.85 ± 0.30%
[1]; jejunum from WT mice, listed as 3H-digoxin
  % of initial amount at 2 h (absorbed through jejunal tissue): 0.85 ± 0.3%
[2]; APP/PS1 mice
  time at which plasma concentrations reached a maximum: 0.5 h
[2]; WT mice
  time at which plasma concentrations reached a maximum: 0.5 h
[4]
  Papp at 120 min, 0.1 µCi/mL: 14.5 ± 11 ×10⁻⁶ cm/s
  Papp at 120 min: 64.2 ± 39.4 ×10⁻⁶ cm/s

## CCCCC(=O)N(Cc1ccc(-c2ccccc2-c2nnn[nH]2)cc1)[C@H](C(=O)O)C(C)C [Valsartan, valsartan]
[2]; APP/PS1 mice
  time at which plasma concentrations reached a maximum: 1 h
[2]; WT mice
  time at which plasma concentrations reached a maximum: 1 h
[4]
  Papp at 120 min: 55.8 ± 16.7 ×10⁻⁶ cm/s

## OC[C@@H](O)[C@@H](O)[C@H](O)[C@H](O)CO [^14C-Mannitol, mannitol]
[1]; jejunum from APP/PS1 mice
  % of initial amount at 2 h (absorbed through jejunal tissue): 0.12 ± 0.04 %
[1]; jejunum from WT mice
  % of initial amount at 2 h (absorbed through jejunal tissue): 0.17 ± 0.05%
[4]
  Papp at 120 min, 0.1 µCi/mL: 6 ± 3.4 ×10⁻⁶ cm/s
  Papp at 120 min: 10.7 ± 3.7 ×10⁻⁶ cm/s

## CCN(C)C(=O)Oc1cccc([C@H](C)N(C)C)c1 [rivastigmine]
[5]
  plasma concentrations in people with AD compared to healthy volunteers: significantly higher
